Source: ChEMBL document CHEMBL4359915, “Design, synthesis and biological evaluation of novel diazaspiro[4.5]decan-1-one derivatives as potential chitin synthase inhibitors and antifungal agents” (Eur J Med Chem, 2019)
≈ marks a conversion by molar mass, not a printed value.

How the values were obtained:
Candida tropicalis = assay: Inhibition of Candida tropicalis ATCC 750 chitin synthase at 300 ug/ml using UDP-GlcNAc as substrate relative to control
Candida albicans [1] = assay: Antifungal activity against Candida albicans ATCC 76615 assessed as growth inhibition measured after 24 hrs by two-fold broth dilution method; assay type: functional; conditions: ATCC 76615, 24 h
Aspergillus fumigatus [2] = assay: Antifungal activity against Aspergillus fumigatus GIMCC 3.19 assessed as growth inhibition measured after 24 hrs by two-fold broth dilution method; assay type: functional; conditions: GIMCC 3.19, 24 h
Candida albicans [3] = assay: Antifungal activity against Candida albicans ATCC 90023 assessed as growth inhibition measured after 24 hrs by two-fold broth dilution method; assay type: functional; conditions: ATCC 90023, 24 h
Cryptococcus neoformans [4] = assay: Antifungal activity against Cryptococcus neoformans ATCC 32719 assessed as growth inhibition measured after 24 hrs by two-fold broth dilution method; assay type: functional; conditions: ATCC 32719, 24 h
Aspergillus flavus [5] = assay: Antifungal activity against Aspergillus flavus ATCC 16870 assessed as growth inhibition measured after 24 hrs by two-fold broth dilution method; assay type: functional; conditions: ATCC 16870, 24 h
Staphylococcus aureus [6] = assay: Antibacterial activity against methicillin-resistant Staphylococcus aureus N315 assessed as growth inhibition measured after 24 hrs by two-fold broth dilution method; assay type: functional; conditions: N315, 24 h
Staphylococcus aureus [7] = assay: Antibacterial activity against Staphylococcus aureus ATCC 25923 assessed as growth inhibition measured after 24 hrs by two-fold broth dilution method; assay type: functional; conditions: ATCC 25923, 24 h
Bacillus spizizenii = assay: Antibacterial activity against Bacillus subtilis ATCC 6633 assessed as growth inhibition measured after 24 hrs by two-fold broth dilution method; assay type: functional; conditions: ATCC 6633, 24 h
Escherichia coli = assay: Antibacterial activity against Escherichia coli JM 109 assessed as growth inhibition measured after 24 hrs by two-fold broth dilution method; assay type: functional; conditions: JM 109, 24 h
Pseudomonas aeruginosa = assay: Antibacterial activity against Pseudomonas aeruginosa ATCC 9027 assessed as growth inhibition measured after 24 hrs by two-fold broth dilution method; assay type: functional; conditions: ATCC 9027, 24 h
[8] = Inhibition of Candida tropicalis ATCC 750 chitin synthase using UDP-GlcNAc as substrate
Candida albicans [9] = assay: Antifungal activity against Candida albicans ATCC 76615 assessed as fractional inhibitory concentration index after 24 hrs in presence of fluconazole by two-dimensional broth microdilution checkboard assay; assay type: functional
Aspergillus fumigatus [10] = assay: Antifungal activity against Aspergillus fumigatus GIMCC 3.19 assessed as fractional inhibitory concentration index after 24 hrs in presence of fluconazole by two-dimensional broth microdilution checkboard assay; assay type: functional
Cryptococcus neoformans [11] = assay: Antifungal activity against Cryptococcus neoformans ATCC 32719 assessed as fractional inhibitory concentration index after 24 hrs in presence of fluconazole by two-dimensional broth microdilution checkboard assay; assay type: functional
Aspergillus flavus [12] = assay: Antifungal activity against Aspergillus flavus ATCC 16870 assessed as fractional inhibitory concentration index after 24 hrs in presence of fluconazole by two-dimensional broth microdilution checkboard assay; assay type: functional
Candida albicans [13] = assay: Antifungal activity against Candida albicans ATCC 76615 after 24 hrs in presence of fluconazole by two-dimensional broth microdilution checkboard assay; assay type: functional; conditions: ATCC 76615, 24 h
Aspergillus fumigatus [14] = assay: Antifungal activity against Aspergillus fumigatus GIMCC 3.19 after 24 hrs in presence of fluconazole by two-dimensional broth microdilution checkboard assay; assay type: functional; conditions: GIMCC 3.19, 24 h
Cryptococcus neoformans [15] = assay: Antifungal activity against Cryptococcus neoformans ATCC 32719 after 24 hrs in presence of fluconazole by two-dimensional broth microdilution checkboard assay; assay type: functional; conditions: ATCC 32719, 24 h
Aspergillus flavus [16] = assay: Antifungal activity against Aspergillus flavus ATCC 16870 after 24 hrs in presence of fluconazole by two-dimensional broth microdilution checkboard assay; assay type: functional; conditions: ATCC 16870, 24 h
Proteus vulgaris = assay: Antibacterial activity against Bacillus proteus ATCC 8427 assessed as growth inhibition measured after 24 hrs by two-fold broth dilution method; assay type: functional; conditions: ATCC 8427, 24 h
Candida albicans [17] = assay: Antifungal activity against Candida albicans ATCC 76615 assessed as fluconazole MIC after 24 hrs in presence of fluconazole by two-dimensional broth microdilution checkboard assay; assay type: functional; conditions: ATCC 76615, 24 h
Aspergillus fumigatus [18] = assay: Antifungal activity against Aspergillus fumigatus GIMCC 3.19 assessed as fluconazole MIC after 24 hrs in presence of fluconazole by two-dimensional broth microdilution checkboard assay; assay type: functional; conditions: GIMCC 3.19, 24 h
Cryptococcus neoformans [19] = assay: Antifungal activity against Cryptococcus neoformans ATCC 32719 assessed as fluconazole MIC after 24 hrs in presence of fluconazole by two-dimensional broth microdilution checkboard assay; assay type: functional; conditions: ATCC 32719, 24 h
Aspergillus flavus [20] = assay: Antifungal activity against Aspergillus flavus ATCC 16870 assessed as fluconazole MIC after 24 hrs in presence of fluconazole by two-dimensional broth microdilution checkboard assay; assay type: functional; conditions: ATCC 16870, 24 h
[21] = Inhibition of Saccharomyces cerevisiae CGMCC 2.145 chitin synthase using GlcNAc and UDP-GlcNAc as substrate incubated for 60 mins by microplate reader analysis

Compound | inhibition (Candida tropicalis) [%] | MIC (Candida albicans [1]) | MIC (Aspergillus fumigatus [2]) | MIC (Candida albicans [3]) [µM] | MIC (Cryptococcus neoformans [4]) | MIC (Aspergillus flavus [5]) | MIC (Staphylococcus aureus [6]) [µM] | MIC (Staphylococcus aureus [7]) [µM] | MIC (Bacillus spizizenii) [µM] | MIC (Escherichia coli) [µM] | MIC (Pseudomonas aeruginosa) [µM] | fractional inhibitory concentration index (FICI) (Candida albicans [9]) | fractional inhibitory concentration index (FICI) (Aspergillus fumigatus [10]) | fractional inhibitory concentration index (FICI) (Cryptococcus neoformans [11]) | fractional inhibitory concentration index (FICI) (Aspergillus flavus [12]) | MIC (Candida albicans [13]) [µM] | MIC (Aspergillus fumigatus [14]) [µM] | MIC (Cryptococcus neoformans [15]) [µM] | MIC (Aspergillus flavus [16]) [µM] | MIC (Proteus vulgaris) [µM] | further results
O=C(Nc1ccc(F)c(Cl)c1)[C@H](O)[C@@H](O)C(=O)N1CCC2(CCNC2=O)CC1 | 70.6 | 309 µM | 155 µM | 150 (≈ 62.1 µg/mL) | 309 µM | 155 µM | 150 (≈ 62.1 µg/mL) | 310 (≈ 128 µg/mL) | 620 (≈ 257 µg/mL) | 310 (≈ 128 µg/mL) | 620 (≈ 257 µg/mL) | 1.3 | 1.5 | 2.3 | 1 | 77 | 155 | 77 | 77 | 310 (≈ 128 µg/mL) | IC50 [8]: 220 µM; MIC (Candida albicans [17]): 52 µM; MIC (Aspergillus fumigatus [18]): 52 µM; MIC (Cryptococcus neoformans [19]): 104 µM; MIC (Aspergillus flavus [20]): 104 µM
COc1ccc(N2CCN(C(=O)[C@H](O)[C@@H](O)C(=O)Nc3c(O)c4cc(O)ccc4oc3=O)CC2)cc1 | – | 16 to 64 µg/mL | 16 to 64 µg/mL | – | 16 to 64 µg/mL | 16 to 64 µg/mL | – | – | – | – | – | – | – | – | – | – | – | – | – | – | IC50 [21]: 100 µM
O=C(Nc1cc(C(F)(F)F)cc(C(F)(F)F)c1)[C@H](O)[C@@H](O)C(=O)N1CCC2(CCNC2=O)CC1 | 2.3 | 32 µM | 515 µM | 260 (≈ 129 µg/mL) | 64 µM | 515 µM | 260 (≈ 129 µg/mL) | 1030 (≈ 512 µg/mL) | 510 (≈ 254 µg/mL) | 60 (≈ 29.8 µg/mL) | 510 (≈ 254 µg/mL) | 1 | 0.8 | 3 | 0.5 | 16 | 129 | 129 | 129 | 1030 (≈ 512 µg/mL) | MIC (Candida albicans [17]): 26 µM; MIC (Aspergillus fumigatus [18]): 52 µM; MIC (Cryptococcus neoformans [19]): 52 µM; MIC (Aspergillus flavus [20]): 52 µM
COc1ccc(NC(=O)[C@H](O)[C@@H](O)C(=O)N2CCC3(CCNC3=O)CC2)cc1 | 78.3 | 164 µM | 82 µM | 330 (≈ 129 µg/mL) | 327 µM | 164 µM | 650 (≈ 254 µg/mL) | 330 (≈ 129 µg/mL) | 1310 (≈ 513 µg/mL) | 330 (≈ 129 µg/mL) | 1310 (≈ 513 µg/mL) | 2 | 1 | 1.5 | 0.8 | 164 | 41 | 327 | 82 | 330 (≈ 129 µg/mL) | IC50 [8]: 120 µM; MIC (Candida albicans [17]): 52 µM; MIC (Aspergillus fumigatus [18]): 52 µM; MIC (Cryptococcus neoformans [19]): 26 µM; MIC (Aspergillus flavus [20]): 52 µM
O=C(Nc1ccc(Cl)cc1)[C@H](O)[C@@H](O)C(=O)N1CCC2(CCNC2=O)CC1 | 66.5 | 162 µM | 323 µM | 320 (≈ 127 µg/mL) | 162 µM | 323 µM | 650 (≈ 257 µg/mL) | 320 (≈ 127 µg/mL) | 1290 (≈ 511 µg/mL) | 320 (≈ 127 µg/mL) | 1290 (≈ 511 µg/mL) | 0.3 | 0.8 | 2 | 1 | 10 | 81 | 162 | 162 | 650 (≈ 257 µg/mL) | IC50 [8]: 270 µM; MIC (Candida albicans [17]): 13 µM; MIC (Aspergillus fumigatus [18]): 52 µM; MIC (Cryptococcus neoformans [19]): 52 µM; MIC (Aspergillus flavus [20]): 104 µM
